Target: T1, plasminogen (Homo sapiens, UniProt P00747)
T1 construct: Glu-Pg, uPA, tPA, fibrinogen, and chromogenic substrate for Pn were purchased from Molecular Innovations (Novi, Mich.); purchased Molecular Innovations (Novi, Mich.)
Test: LC-MS/MS identification of sites of MG adduction on plasminogen in vitro (Tables 1 and 12)
Conditions: 500 μM MG, 24 hr
Experimental: 10 μg Pg was incubated with MG (50-500 μM) in tris-buffered saline (TBS) for 24 hours at 37° C. Following modification, sample volumes were increased to 150 μL and placed in 5 kDa spin filters to reduce volume and remove excess MG from solution.
MG-modified (500 μM) and unmodified Pg control (same incubation conditions without MG) were added to 250 μL amount of rehydration buffer (6M urea, 2M thiourea, 2% CHAPS, 100 mM DTT, 0.5% 3-10 ampholytes) and 5 μL of 3-10 ampholytes (Bio-Rad). Sample rehydrated with a 13 cm 4-7 pH isoelectric focusing strip (GE Healthcare) overnight. Following rehydration, strips were placed in a Bio-Rad PROTEAN IEF Cell focusing instrument. Strips were first focused for 1 hour at 500 V, and then run at a maximum of 8,000V until the strips have reached a final total of 45,000 V/hrs at which point gels are held at 500V until removed. Focused strips were removed, reduced with DTT, cysteines carbamidomethylated with iodoacetamide, and run on a 4-20% gradient Criterion gel for 55 minutes at 200V. Gels were stained for stained according to manufacturer instructions with Imperial Blue Protein (ThermoScientific, Rockford, Ill.) and destained immediately with water. Gel bands were excised and trypsin digested.
Coomassie stained gel-bands were excised and washed in ddH2O for 15 min. H2O was removed and bands were incubated in 50/50 acetonitrile (ACN):ddH2O for 15 min. ACN:ddH2O was removed and bands were incubated with ACN for 5 min. ACN was removed and gels were incubated with 100 mM ammonium bicarbonate (AMBIC). An equal volume of ACN was added to make 1:1 solution and was incubated for 15 min. The ACN/AMBIC solution was removed and remaining gel bands were dried by speed-vacuum. 10 mM dithiothreitol (DTT) was added to each band and incubated at 56° C. for 45 min. DTT was removed and sample brought to room temperature (RT). Iodoacetamide (55 mM) was added to each sample and incubated at RT for 30 min in dark. Iodoacetamide was removed and 100 mM AMBIC was added and bands were incubated for 5 min. An equal volume of ACN was added to make a 1:1 solution and incubated for 15 min. The ACN/AMBIC solution was removed and bands were dried by speed-vacuum. Bands were digested with trypsin (400 ng/band) in 50 mM AMBIC and incubated on ice for 45 min. Tryptic solution was removed and 50 mM AMBIC was added to each band and incubated overnight at 37° C. to complete digestion. Digests were acidified using 10% trifluoroacetic acid (TFA). Supernatant was saved. Band was covered with TFA:ACN (0.1%:60%) and sonicated at 20° C. water bath for 30 min. Supernatant was combined with previous fraction. Sampled were speed vacuumed to a final volume of 10 μL prior to LC-MS/MS analysis on an LTQ Orbitrap Velos mass spectrometer as described below.
LC-MS/MS analysis of in-gel trypsin digested-proteins (Shevchenko et al., 1996) was carried out using a LTQ Orbitrap Velos mass spectrometer (Thermo Fisher Scientific, San Jose, Calif.) equipped with an Advion nanomate ESI source (Advion, Ithaca, N.Y.), following ZipTip (Millipore, Billerica, Mass.) C18 sample clean-up according to the manufacturer's instructions. Peptides were eluted from a C18 precolumn (100-μm id×2 cm, Thermo Fisher Scientific) onto an analytical column (75-μm ID×10 cm, C18, Thermo Fisher Scientific) using a 5-20% gradient of solvent B (acetonitrile, 0.1% formic acid) over 65 minutes, followed by a 20-35% gradient of solvent B over 25 minutes, all at a flow rate of 400 nl/min. Solvent A consisted of water and 0.1% formic acid. Data dependent scanning was performed by the Xcalibur v 2.1.0 software (Andon et al., 2002) using a survey mass scan at 60,000 resolution in the Orbitrap analyzer scanning m/z 350-1600, followed by collision-induced dissociation (CID) tandem mass spectrometry (MS/MS) of the fourteen most intense ions in the linear ion trap analyzer. […]

T1 sequence (P00747 20-810 limits assumed): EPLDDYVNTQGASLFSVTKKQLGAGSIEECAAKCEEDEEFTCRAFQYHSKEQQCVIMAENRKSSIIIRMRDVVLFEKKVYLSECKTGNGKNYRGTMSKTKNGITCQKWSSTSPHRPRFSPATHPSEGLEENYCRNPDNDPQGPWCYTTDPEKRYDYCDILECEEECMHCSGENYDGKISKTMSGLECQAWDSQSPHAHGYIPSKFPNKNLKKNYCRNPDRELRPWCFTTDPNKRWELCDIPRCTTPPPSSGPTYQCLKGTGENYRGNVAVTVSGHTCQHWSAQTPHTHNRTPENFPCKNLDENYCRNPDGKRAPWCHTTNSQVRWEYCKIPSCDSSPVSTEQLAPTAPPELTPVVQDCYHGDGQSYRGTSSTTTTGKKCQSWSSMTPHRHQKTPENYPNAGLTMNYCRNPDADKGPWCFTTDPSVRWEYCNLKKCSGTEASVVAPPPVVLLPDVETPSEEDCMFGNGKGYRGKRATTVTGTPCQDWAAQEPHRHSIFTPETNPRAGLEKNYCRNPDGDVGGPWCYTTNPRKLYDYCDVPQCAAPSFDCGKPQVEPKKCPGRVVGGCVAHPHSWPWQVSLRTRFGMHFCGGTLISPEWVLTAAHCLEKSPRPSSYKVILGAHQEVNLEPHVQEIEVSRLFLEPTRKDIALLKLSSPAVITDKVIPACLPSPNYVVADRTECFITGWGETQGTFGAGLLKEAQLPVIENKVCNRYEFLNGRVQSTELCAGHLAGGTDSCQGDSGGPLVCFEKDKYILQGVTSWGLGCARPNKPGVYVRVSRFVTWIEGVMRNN

CC(=O)C=O [MG, Methylglyoxal]
Spectra Observed (site 312, MG-DH, RAPWC(+57)HTTNSQVR): 10 | Spectra Observed (site 312, MG-HI, RAPWC(+57)HTTNSQVR): 8 | Spectra Observed (site 324, MG-DH, RAPWC(+57)HTTNSQVRWEYC(+57)K): 4 | Spectra Observed (site 324, MG-HI, APWC(+57)HTTN SQVRWEYC(+57)K): 3 | Spectra Observed (site 324, MG-HI, RAPWC(+57)HTTNSQVRWEYC(+57)K): 7 | Spectra Observed (site 389, MG-DH, C(+57)QSWSSMTPHRHQK): 2 | Spectra Observed (site 389, MG-DH, KC(+57)QSWSSMTPHRHQK): 1 | Spectra Observed (site 389, MG-HI, C(+57)QSWSSMTPHRHQK): 4 | Spectra Observed (site 389, MG-HI, KC(+57)QSWSSMTPHRHQK): 1 | Spectra Observed (site 474, MG-DH, GKRATTVTGTPC(+57)QDWAAQEPHR): 1 | Spectra Observed (site 474, MG-DH, RATTVTGTPC(+57)QDWAAQEPHR): 3 | Spectra Observed (site 474, MG-HI, GKRATTVTGTPC(+57)QDWAAQEPHR): 4 | Spectra Observed (site 474, MG-HI, RATTVTGTPC(+57)QDWAAQEPHR): 3 | Spectra Observed (site 493, MG-DH, ATTVTGTPC(+57)QDWAAQEPHRHSIFTPETNPR): 4 | Spectra Observed (site 493, MG-DH, RATTVTGPC(+57)QDWAAQEPHRHSIFTPETNPR): 3 | Spectra Observed (site 493, MG-HI, ATTVTGTPC(+57)QDWAAQEPHRHSIFTPETNPR): 6 | Spectra Observed (site 493, MG-HI, RATTVTGPC(+57)QDWAAQEPHRHSIFTPETNPR): 4 | Spectra Observed (site 504, MG-DH, HSIFTPETNPRAGLEK): 9 | Spectra Observed (site 504, MG-HI, HSIFTPETNPRAGLEK): 16 | Spectra Observed (site 530, MG-DH, NPDGDVGGPWC(+57)YTTNPRK): 9 | Spectra Observed (site 530, MG-HI, NPDGDVGGPWC(+57)YTTNPRK): 12 | Spectra Observed (site 530, MG-HI, NYC(+57)RNPDGDVGGPWC(+57)YTTNPRK): 3 | Spectra Observed (site 561, MG-DH, C(+57)PGRVVGGC(+57)VAHPHSWPWQVSLR): 5 | Spectra Observed (site 561, MG-DH, CPGRVVGGCVAHPHSWPWQVSLR): 1 | Spectra Observed (site 561, MG-DH, KC(+57)PGRVVGGC(+57)VAHPHSWPWQVSLR): 10 | Spectra Observed (site 561, MG-DH, KCPGRVVGGCVAHPHSWPWQVSLR): 1 | Spectra Observed (site 561, MG-HI, C(+57)PGRVVGGC(+57)VAHPHSWPWQVSLR): 5 | Spectra Observed (site 561, MG-HI, KC(+57)PGRVVGGC(+57)VAHPHSWPWQVSLR): 12 | Spectra Observed (site 582, MG-DH, TRFGMHFC(+57)GGTLISPEWVLTAAHC(+57)LEK): 1 | Spectra Observed (site 582, MG-HI, TRFGM(+16)HFC(+57)GGTLISPEWVLTAAHC(+57)LEK): 1 | Spectra Observed (site 582, MG-HI, TRFGMHFC(+57)GGTLISPEWVLTAAHC(+57)LEK): 1 | Spectra Observed (site 644, MG-HI, LFLEPTRK): 2 | Spectra Observed (site 712, MG-DH, VC(+57)NRYEFLNGR): 5 | Spectra Observed (site 712, MG-HI, VC(+57)NRYEFLNGR): 4 | Spectra Observed (site 767, MG-DH, DKYILQGVTSWGLGC(+57)ARPNKPGVYVR): 8 | Spectra Observed (site 767, MG-DH, YILQGVTSWGLGC(+57)ARPNKPGVYVR): 6 | Spectra Observed (site 767, MG-HI, DKYILQGVTSWGLGC(+57)ARPNKPGVYVR): 11 | Spectra Observed (site 767, MG-HI, YILQGVTSWGLGC(+57)ARPNKPGVYVR): 6 | Spectra Observed (site 779, MG-DH, VSRFVTWIEGVM(+16)R): 5 | Spectra Observed (site 779, MG-DH, VSRFVTWIEGVMR): 2 | Spectra Observed (site 779, MG-HI, VSRFVTWIEGVM(+16)R): 9 | Spectra Observed (site 779, MG-HI, VSRFVTWIEGVMR): 4 | Spectra Observed (site 789, MG-DH, FVTWIEGVM(+16)RNN): 6 | Spectra Observed (site 789, MG-DH, FVTWIEGVMRNN): 13 | Spectra Observed (site 789, MG-HI, FVTWIEGVM(+16)RNN): 10 | Spectra Observed (site 789, MG-HI, FVTWIEGVMRNN): 14 | Spectra Observed (sites 115/117, MG-DH, MG-HI, WSSTSPHRPRFSPATHPSEGLEENYC(+57)R): 2 | Spectra Observed (sites 115/117, MG-DH, WSSTSPHRPRFSPATHPSEGLEENYC(+57)R): 1 | Spectra Observed (sites 115/117, MG-HI, WSSTSPHRPRFSPATHPSEGLEENYC(+57)R): 3 | Spectra Observed (sites 220/223, MG-DH, NPDRELRPWC(+57)FTTDPNKR): 3 | Spectra Observed (sites 220/223, MG-HI, MG-DH, NPDRELRPWC(+57)FTTDPNKR): 9 | Spectra Observed (sites 220/223, MG-HI, NPDRELRPWC(+57)FTTDPNKR): 8 | Spectra Observed (sites 312/324, MG-DH, MG-HI, RAPWC(+57)HTTNSQVRWEYC(+57)K): 7 | Spectra Observed (sites 312/324, MG-DH, RAPWC(+57)HTTNSQVRWEYC(+57)K): 3 | Spectra Observed (sites 312/324, MG-HI, RAPWC(+57)HTTNSQVRWEYC(+57)K): 2 | Spectra Observed (sites 474/493, MG-DH, MG-HI, RATTVTGTPCQDWAAQEPHRHSIFTPETNPR): 1 | Spectra Observed (sites 474/493, MG-HI, RATTVTGTPC(+57)QDWAAQEPHRHSIFTPETNPR): 1 | Spectra Observed (sites 489/504, MG-HI, MG-DH, ATTVTGTPC(+57)QDWAAQEPHRHSIFTPETNPRAGLEK): 1 | Spectra Observed (sites 779/789, MG-DH, VSRFVTWIEGVM(+16)RNN): 1 | Spectra Observed (sites 779/789, MG-HI, MG-DH, VSRFVTWIEGVM(+16)RNN): 3 | Spectra Observed (sites 779/789, MG-HI, VSRFVTWIEGVM(+16)RNN): 3
